From patent publication US10822311B2, “Pyrimidines and variants thereof, and uses therefor” (Afferent Pharmaceuticals Inc., priority 2016, dated 2020)
Like-named read-outs stand apart in the source and are kept apart here.

Tests used:
[1] = target: T1, human P2X3 receptor (homomeric P2X3 channels) (Homo sapiens, UniProt P56373); experiment: FlexStation calcium fluorescence assay, homomeric P2X3 channels in HEK293 cells; type: cell-based; settings: for Selectivity P2X3/P2X2/3: Ratio=10^(P2X3pIC50−P2X2/3pIC50); for Selectivity, R = OMe / P2X3 mean pIC50, R = OMe: Table 3B; for P2X3 mean pIC50, R = OMe: Table 2
T1 construct: expressed in transfected cells; host or cells: HEK293 human embryonic kidney cells (HEK-hP2X3)
T1 sequence (P56373 1-397): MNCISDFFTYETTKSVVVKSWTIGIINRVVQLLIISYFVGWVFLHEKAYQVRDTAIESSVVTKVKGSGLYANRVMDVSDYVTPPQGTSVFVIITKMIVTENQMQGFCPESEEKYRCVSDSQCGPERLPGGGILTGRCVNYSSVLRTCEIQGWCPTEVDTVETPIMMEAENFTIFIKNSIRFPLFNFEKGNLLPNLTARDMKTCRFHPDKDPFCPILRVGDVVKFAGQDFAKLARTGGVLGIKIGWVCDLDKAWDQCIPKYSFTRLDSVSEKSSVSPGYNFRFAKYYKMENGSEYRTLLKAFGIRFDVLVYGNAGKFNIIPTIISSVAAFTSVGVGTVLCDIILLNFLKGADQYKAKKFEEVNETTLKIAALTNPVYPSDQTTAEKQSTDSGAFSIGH
Procedure: (§1) 1321N1 human astrocytoma and HEK293 human embryonic kidney cells were stably transfected with human P2X2 and P2X3 receptor subunits to form heteromeric P2X2/3 channels and passaged in flasks. Additionally, HEK293 cells were stably transfected with human P2X3 receptor subunits to form homomeric P2X3 channels.
(§2) Approximately 24 hours before the FlexStation calcium fluorescence experiment, cells were released from their flasks, centrifuged and re-suspended in nutrient medium. The cells were aliquoted into black-wall, clear-bottom 96 well plates at a density of 25,000 cells per well and incubated overnight in a humidified, CO2-enriched (5%) atmosphere at 37° C.
(§3) On the day of the experiment, cells were washed with assay buffer (calcium- and magnesium-free Hank's balanced salt solution, 20 mM HEPES, 2 mM CaCl2; AB) and loaded with 4 μM Fluo-4 (P2X2/3) or Calcium 6 (Molecular Devices, according to manufacturer's instructions; P2X3) calcium-sensitive fluorescent dye in 100 μL AB.
(§4) After 1 hour of dye loading at 37° C., 1321N1-hP2X2/3 cells were washed two times with AB and test compound or vehicle added to each well in a total volume of 150 μL AB. HEK-hP2X3 cells were not washed because the Calcium 6 dye kit includes an extracellular dye that quenches unabsorbed Calcium 6 dye; test compound or vehicle were added directly to the assay plates to achieve the appropriate concentration of test compound in a total volume of 150 μL AB.
(§5) After 20 minutes incubation at room temperature and protected from light, the assay plates were loaded into the FlexStation microplate reader and baseline fluorescence measured with an excitation wavelength of 485 nm and emission wavelength readings centered at 525 nm (515 nm cut off).
(§6) The agonist was dispensed by the FlexStation during fluorescence measurement to construct agonist activation and antagonist inhibition curves. The final agonist concentration for inhibition was 1 μM α,β-meATP for P2X3 and 3 μM ATP for P2X2/3. Peak fluorescence was measured and curves generated using a four parameter nonlinear regression equation.

[2] = target: T2, human P2X2/3 (heteromeric P2X2/3 channels) (Homo sapiens, UniProt P56373+Q9UBL9); experiment: FlexStation calcium fluorescence assay, heteromeric P2X2/3 channels in 1321N1 cells; type: cell-based; settings: for P2X2/3 mean pIC50, R = OMe: Table 3B, Table 2
T2 construct: expressed in transfected cells; host or cells: 1321N1 human astrocytoma cells (1321N1-hP2X2/3)
T2 sequence (P56373 1-397): T1 sequence (P56373 1-397)
T2 sequence (Q9UBL9 1-471): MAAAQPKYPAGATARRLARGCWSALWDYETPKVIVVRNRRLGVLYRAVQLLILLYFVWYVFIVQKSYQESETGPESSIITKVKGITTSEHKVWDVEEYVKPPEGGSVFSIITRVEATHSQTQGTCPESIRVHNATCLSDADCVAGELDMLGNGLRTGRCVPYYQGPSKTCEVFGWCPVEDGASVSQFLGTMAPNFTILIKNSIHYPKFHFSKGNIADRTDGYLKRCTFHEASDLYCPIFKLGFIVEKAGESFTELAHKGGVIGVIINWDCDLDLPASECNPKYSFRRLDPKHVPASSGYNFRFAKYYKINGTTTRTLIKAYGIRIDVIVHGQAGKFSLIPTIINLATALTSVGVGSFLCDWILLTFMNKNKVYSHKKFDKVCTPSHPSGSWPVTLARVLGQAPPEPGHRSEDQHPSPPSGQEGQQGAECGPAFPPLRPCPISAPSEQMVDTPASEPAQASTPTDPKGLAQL
Procedure: as §1, §2, §3, §4, §5, §6

[3] = HEK293 cells, hP2X3, agonist 1 μM α,β-meATP, read-out: Average pIC50 P2X3 (converted)
[4] = 1321N1 cells, hP2X2/3, agonist 3 μM ATP, highest concentration tested is 10 μM, read-out: Average pIC50 P2X2/3 (converted)
[5] = Table 3A, sulfur-linked, hP2X3, HEK293 cells
[6] = Table 3A, sulfur-linked, hP2X2/3, 1321N1 (astrocytoma) cells, highest concentration tested is 10 μM
[7] = hP2X2/3, 1321N1 (astrocytoma) cells

Row | SMILES | IC50 [1, 3] [µM] | Selectivity P2X3/P2X2/3 [1] | IC50 [2, 4] [µM] | other results
1 | COc1cc(Oc2cnc(N)nc2Nc2cccnn2)c(C(C)C)cc1OC [Compound 45] | 3.16 | 3.5 | > 10 | 
2 | CNc1nc(N)ncc1Oc1cc(OC)c(OC)cc1C(C)C [Compound 34] | 1.58 | >6.4 | > 10 | 
3 | COc1cc(Nc2cnc(N)nc2N)c(C(C)C)cc1OC [Compound 47] | 0.049 |  | 1.38 | 
4 | COc1ccc(Oc2cnc(N)nc2N)c(C(C)C)n1 [Compound 14] | 1.26 |  | > 10 | 
5 | COc1cc(Oc2cnc(NC(CCO)CCO)nc2N)c(C(C)C)cc1OC [Compound 21] | 0.0794 | 5.0 | 0.398 | 
6 | COc1cc(Oc2cnc(N)nc2NC2CC2)c(C(C)C)cc1OC [Compound 32] | 0.794 | 1.6 | 1.26 | 
7 | C#Cc1cc(Sc2cnc(N)nc2N)c(C(C)C)cc1OC [Compound 5] | 0.0398 |  | 3.98 | 
8 | COc1cc(C(C)C)c(Sc2cnc(N)nc2N)cc1S(N)(=O)=O [Compound 3] | 0.158 |  | > 10 | 
9 | COc1cc(Oc2cnc(N)nc2Nc2cnccn2)c(C(C)C)cc1OC [Compound 44] | 1 | >10 | > 10 | 
10 | COc1cc(Oc2cnc(N)nc2Nc2ccccc2)c(C(C)C)cc1OC [Compound 42] | 1 | >10 | > 10 | 
11 | COc1cc(C(C)C)c(Sc2cnc(N)nc2N)cc1C#N [Compound 10] | > 10 |  | > 10 | 
12 | COc1cc(C(C)C)c(Sc2cnc(N)nc2N)cc1S(C)(=O)=O [Compound 2] | 0.501 |  | > 10 | P2X3 mean pIC50, X = S [1, 5]: 6.3; P2X2/3 mean pIC50, X = S [2, 6]: <5
13 | COc1cc(Oc2cnc(N)nc2NC2CCN(C)CC2)c(C(C)C)cc1OC [Compound 39] | 0.316 | 20 | 6.31 | 
14 | COc1cc(Oc2cnc(N)nc2NC2CCOCC2)c(C(C)C)cc1OC [Compound 40] | 1.26 | >8 | > 10 | 
15 | COc1cc(Sc2cnc(N)nc2N)c(C(C)C)cc1OC [Compound 1] |  |  |  | Average pIC50 P2X3 ([1]; HEK293 cells, hP2X3, agonist 1 μM α,β-meATP): 7.0; P2X3 mean pIC50, X = S ([1]; Table 3A, sulfur-linked, hP2X3, HEK293 cells, listed as Row A, X = S): 7.0; IC50 ([1]; Table 3A, sulfur-linked, hP2X3, HEK293 cells, read-out: P2X3 mean pIC50, X = S (converted)): 0.1 µM; Average pIC50 P2X2/3 ([2]; 1321N1 cells, hP2X2/3, agonist 3 μM ATP, highest concentration tested is 10 μM): <5; P2X2/3 mean pIC50, X = S ([2]; Table 3A, sulfur-linked, hP2X2/3, 1321N1 (astrocytoma) cells, highest concentration tested is 10 μM, listed as Row A, X = S): <5; IC50 ([2]; Table 3A, sulfur-linked, hP2X2/3, 1321N1 (astrocytoma) cells, highest concentration tested is 10 μM, read-out: P2X2/3 mean pIC50, X = S (converted)): > 10 µM
16 | COc1cc(Oc2cnc(NC(C)(C)C)nc2N)c(C(C)C)cc1OC [Compound 23] | 1 | >10.5 | > 10 | 
17 | COc1nc(C(C)C)c(Oc2cnc(N)nc2N)cc1C#N [Compound 17] | 1 |  | > 10 | 
18 | COc1nc(C(C)C)c(Oc2cnc(N)nc2N)cc1C(F)(F)F [Compound 18] | 0.0631 |  | 1.58 | 
19 | COc1cc(Oc2cnc(N)nc2N)c(C(C)C)nc1OC [Compound 13] | 0.0398 |  | 0.2 | 
20 | COc1cc(C(C)C)c(Sc2cnc(N)nc2N)cc1I [Compound 4] | 0.126 |  | 6.31 | Selectivity, X = S ([1]; Table 3A, sulfur-linked, P2X3 vs P2X2/3 potency ratio): 48; P2X2/3 mean pIC50, X = S [2, 6]: 5.2

Row | SMILES | IC50 [1, 3] [µM] | Selectivity P2X3/P2X2/3 [1] | IC50 [2, 4] [µM] | other results
21 | COc1cc(Oc2cnc(NC3CCOCC3)nc2N)c(C(C)C)cc1OC [Compound 28] | 0.398 | 3.2 | 1.26 | 
22 | COCCNc1nc(N)ncc1Oc1cc(OC)c(OC)cc1C(C)C [Compound 36] | 1 | >10 | > 10 | 
23 | COCCOCCNc1ncc(Oc2cc(OC)c(OC)cc2C(C)C)c(N)n1 [Compound 24] | 1.58 | >5.9 | > 10 | 
24 | COc1cc(Oc2cnc(N)nc2NCc2ccccc2)c(C(C)C)cc1OC [Compound 46] | 0.631 | 4.8 | 3.16 | 
25 | COc1cc(C(C)C)c(Sc2cnc(N)nc2N)cc1C(=O)O [Compound 12] | 5.01 |  | > 10 | 
26 | COc1cc(Oc2cnc(N)nc2NCC(C)C)c(C(C)C)cc1OC [Compound 33] | 0.631 | >15 | > 10 | 
27 | COc1cc(C(C)C)c(Sc2cnc(N)nc2N)cc1C [Compound 7] | 0.316 |  | > 10 | 
28 | COc1cc(C(C)C)c(Sc2cnc(N)nc2N)cc1-c1nnn[nH]1 [Compound 11] | 0.158 |  | > 10 | 
29 | COc1cc(Oc2cnc(NCCO)nc2N)c(C(C)C)cc1OC [Compound 22] | 0.2 | 7.9 | 1.58 | Selectivity, R = OMe ([1]; P2X3 vs P2X2/3 potency ratio): 7.9; P2X3 mean pIC50, R = OMe ([1]; hP2X3, HEK293 cells): 6.7; P2X2/3 mean pIC50, R = OMe [2, 7]: 5.8
30 | COc1cc(Oc2cnc(NC3CC3)nc2N)c(C(C)C)cc1OC [Compound 26] | 0.631 | 5.4 | 3.16 | 
31 | COc1cc(C(C)C)c(Sc2cnc(N)nc2N)cc1Cl [Compound 9] | 0.158 |  | > 10 | P2X3 mean pIC50, X = S [1, 5]: 6.8; P2X2/3 mean pIC50, X = S [2, 6]: <5
32 | COc1cc(Oc2cnc(N)nc2Nc2ccccn2)c(C(C)C)cc1OC [Compound 43] | 1.58 | >5.6 | > 10 | 
33 | COc1cc(Oc2cnc(NCC(C)C)nc2N)c(C(C)C)cc1OC [Compound 25] | 0.631 | 4.3 | 2.51 | 
34 | COc1cc(C(C)C)c(Sc2cnc(N)nc2N)cc1Br [Compound 8] | 0.2 |  | > 10 | 
35 | COc1cc(Oc2cnc(NC(CO)CO)nc2N)c(C(C)C)cc1OC [Compound 30] | 0.126 | 4.9 | 0.631 | Selectivity, R = OMe ([1]; P2X3 vs P2X2/3 potency ratio): 5.0; P2X3 mean pIC50, R = OMe ([1]; hP2X3, HEK293 cells): 6.9; P2X2/3 mean pIC50, R = OMe [2, 7]: 6.2
36 | COc1nc(C(C)C)c(Oc2cnc(N)nc2N)cc1S(C)(=O)=O [Compound 16] | 0.0631 |  | > 10 | 
37 | CC#Cc1cc(Sc2cnc(N)nc2N)c(C(C)C)cc1OC [Compound 6] | 0.794 |  | > 10 | 
38 | COc1cc(Oc2cnc(N)nc2NC(C)C)c(C(C)C)cc1OC [Compound 35] | 3.98 | >2.5 | > 10 | 
39 | COc1cc(Oc2cnc(NCC(O)CO)nc2N)c(C(C)C)cc1OC (stereo not shown) [Compound 31] | 0.2 | 21 | 3.98 | Selectivity, R = OMe ([1]; P2X3 vs P2X2/3 potency ratio): 20; P2X3 mean pIC50, R = OMe ([1]; hP2X3, HEK293 cells): 6.7; P2X2/3 mean pIC50, R = OMe [2, 7]: 5.4
